Data as given in ChEMBL document CHEMBL4354786, “Prodrug strategies for targeted therapy triggered by reactive oxygen species” (Medchemcomm, 2019).

Experiment: Drug metabolism in pH 7.5 HEPES buffer assessed as hydrolysis after 24 hrs

Structure (SMILES)	Drug metabolism [%]
O=C(O)c1ccc(S(=O)(=O)On2c(C(=O)NCc3ccc(-c4ccccc4)cc3)cccc2=O)cc1	100
O=C(NCc1ccc(-c2ccccc2)cc1)c1cccc(=O)n1OS(=O)(=O)c1ccccc1	100
